# “And” between values parts separate entries of the source, which are not always exact repeats. Equal entries are not always repeated.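 A five-concentration, 48-hour dose response in 96-well plates underlies each endpoint, interpolated linearly between surrounding concentrations. Here, GI50 denotes the concentration required for 50% inhibition of growth. The concentration for full growth arrest is given as TGI.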
# Tested on: SK-MEL-5 melanoma
# Assay: NCI anticancer screen, dose series, 48 h
Structure (SMILES),GI50,TGI
COc1cc(Nc2nccc(Nc3ccc4c(C)[nH]nc4c3)n2)cc(OC)c1OC,2.69 µM,5.96 µM
Nc1c(C(=O)c2ccc(Cl)cc2)sc(Nc2ccccc2)c1-c1nc2ccccc2s1,16.6 µM,> 100 µM
COc1ccc(/C=N\NC(=O)CN2CCN(c3cc4c(cc3F)c(=O)c(C(=O)N/N=C/c3ccc(OC)c(OC)c3)cn4C3CC3)CC2)cc1OC,3.69 µM,15.8 µM

# Tested on: SNB-19 CNS
# Assay: NCI anticancer screen, dose series, 48 h
Structure (SMILES),TGI,GI50
c1ccc2c(c1)CCC/C2=N\OCC1CO1 (configuration not stated),> 100 µM,
CC/C(C)=C1\CCC(CN2CCOCC2)C1=O (configuration not stated),> 100 µM,
O=C1OC(CC(=O)c2ccc(Cl)c(Cl)c2)C(Cl)=C1Cl (configuration not stated),> 100 µM,
O=[N+]([O-])c1cccc(C2N3CCCCC3[C@@H]3c4[nH]c5ccccc5c4CCN23)c1 (some centres not stated),45.6 µM,
CCOC(=O)C(N)C[S][Sn]([CH3])([CH3])[Cl] (configuration not stated),> 100 µM,> 100 µM
COc1cc(Cl)c2c3c(c(C(C)=O)oc13)CCC2,> 100 µM,
NC(=O)C(=Cc1ccc(C(O)P(=O)(O)O)cc1)C(N)=O (configuration not stated),> 100 µM,
CC1=C2[C@@H](CC1)[C@]1(C)O[C@@](C3CCCCC3)(C[C@H]1OC(=O)CO)[C@H]2OC(=O)/C=C/c1ccccc1,31.4 µM,13.1 µM
O=C(O[C@H]1CN[C@H](C#Cc2cc3ncnc(Nc4ccc5c(ccn5Cc5cc(F)ccc5F)c4)c3s2)C1)N1CCOCC1,> 25 µM,4.46 µM
O=c1c(Oc2ccc(F)cc2F)cc2cnc(NC3CCOCC3)nc2n1C1CCS(=O)(=O)CC1,> 25 µM,> 25 µM
NOCC(=O)O,> 100 µM,> 100 µM
CC(=O)c1c(C)[nH]c(-c2nc3ccc(N4CCN(C)CC4)cc3[nH]2)c1-c1ccc(OCC2CCOCC2)cc1,25.1 µM,2.2 µM
CC12OC(c3ccccc3)=CC(c3ccc(Cl)cc3)=C1C(c1ccccc1)=CC2=O (configuration not stated),> 100 µM,> 100 µM
Cc1nc2sc(C(=O)Nc3cccc(Cl)c3C)c(N)c2cc1C(=O)/C=C/c1ccccc1,3.11 µM,0.651 µM
CC(C)c1ccc(C(=O)Nc2nc3ccc(O)cc3s2)cc1,> 100 µM,8.27 µM
C=C1C(=O)O[C@H]2[C@H]1CC/C(CNC(=O)c1cc3cc(OC)ccc3[nH]1)=C\CC[C@@]1(C)O[C@@H]21,21.7 µM,7.94 µM
CC(=O)N[C@H]1C=C[C@@H]2/C=C(C)/C=C/[C@@H](C)[C@H]([C@H](C)[C@H](O)[C@@H](C)NC(C)=O)OC(=O)/C=C/C=C(C)\C=C\[C@]2(C)C1,4.65 µM and > 45 µM,0.256 µM and 0.072 µM
ClCc1cccc(Cn2cnc3c(NC45CC6CC(CC(C6)C4)C5)ncnc32)c1,44.2 µM,17.2 µM
CC(=O)CC(=O)Nc1ccc2ccccc2c1,> 100 µM,
O=c1c2cc(Cl)ccc2oc2ccc(OCCCCCN3CCCCC3)cc12,13.5 µM,6.83 µM
Cc1cc(I)cc(CN(C)CCCN2CCSCC2)c1O,55.6 µM,25.6 µM
O=C1c2ccccc2C(=O)N1CCCSc1ccccc1,> 100 µM,
COc1cc(Nc2nccc(Nc3ccc4c(C)[nH]nc4c3)n2)cc(OC)c1OC,19.9 µM,4.91 µM
Nc1c(C(=O)c2ccc(Cl)cc2)sc(Nc2ccccc2)c1-c1nc2ccccc2s1,> 100 µM,4.56 µM
COc1ccc(/C=N\NC(=O)CN2CCN(c3cc4c(cc3F)c(=O)c(C(=O)N/N=C/c3ccc(OC)c(OC)c3)cn4C3CC3)CC2)cc1OC,12.5 µM,3.11 µM

# Tested on: SR leukemia
# Assay: NCI anticancer screen, dose series, 48 h
Structure (SMILES),TGI,GI50
CC/C(C)=C1\CCC(CN2CCOCC2)C1=O (configuration not stated),49.8 µM,
O=S(=O)(N/N=C/c1ccc(/C=N/NS(=O)(=O)c2ccccc2)cc1)c1ccccc1,> 100 µM,
CC1=C2[C@@H](CC1)[C@]1(C)O[C@@](C3CCCCC3)(C[C@H]1OC(=O)CO)[C@H]2OC(=O)/C=C/c1ccccc1,17.9 µM,4.6 µM
O=C(O[C@H]1CN[C@H](C#Cc2cc3ncnc(Nc4ccc5c(ccn5Cc5cc(F)ccc5F)c4)c3s2)C1)N1CCOCC1,24.5 µM,6.28 µM
O=c1c(Oc2ccc(F)cc2F)cc2cnc(NC3CCOCC3)nc2n1C1CCS(=O)(=O)CC1,> 25 µM,> 25 µM
NOCC(=O)O,> 100 µM,> 100 µM
CC(=O)c1c(C)[nH]c(-c2nc3ccc(N4CCN(C)CC4)cc3[nH]2)c1-c1ccc(OCC2CCOCC2)cc1,5.73 µM,0.685 µM
CC12OC(c3ccccc3)=CC(c3ccc(Cl)cc3)=C1C(c1ccccc1)=CC2=O (configuration not stated),67 µM,19.1 µM
Cc1nc2sc(C(=O)Nc3cccc(Cl)c3C)c(N)c2cc1C(=O)/C=C/c1ccccc1,,0.188 µM
CC(C)c1ccc(C(=O)Nc2nc3ccc(O)cc3s2)cc1,68.7 µM,0.715 µM
C=C1C(=O)O[C@H]2[C@H]1CC/C(CNC(=O)c1cc3cc(OC)ccc3[nH]1)=C\CC[C@@]1(C)O[C@@H]21,10.1 µM,2.24 µM
CC(=O)N[C@H]1C=C[C@@H]2/C=C(C)/C=C/[C@@H](C)[C@H]([C@H](C)[C@H](O)[C@@H](C)NC(C)=O)OC(=O)/C=C/C=C(C)\C=C\[C@]2(C)C1,4.65 µM and 20.3 µM,0.0184 µM and 0.0045 µM
ClCc1cccc(Cn2cnc3c(NC45CC6CC(CC(C6)C4)C5)ncnc32)c1,18.9 µM,
CC(=O)CC(=O)Nc1ccc2ccccc2c1,> 100 µM,
O=c1c2cc(Cl)ccc2oc2ccc(OCCCCCN3CCCCC3)cc12,5.47 µM,1.47 µM
Cc1cc(I)cc(CN(C)CCCN2CCSCC2)c1O,25.3 µM,10.6 µM
O=C1c2ccccc2C(=O)N1CCCSc1ccccc1,> 100 µM,
COc1cc(Nc2nccc(Nc3ccc4c(C)[nH]nc4c3)n2)cc(OC)c1OC,> 15.3 µM,1.42 µM
Nc1c(C(=O)c2ccc(Cl)cc2)sc(Nc2ccccc2)c1-c1nc2ccccc2s1,> 100 µM,0.857 µM
COc1ccc(/C=N\NC(=O)CN2CCN(c3cc4c(cc3F)c(=O)c(C(=O)N/N=C/c3ccc(OC)c(OC)c3)cn4C3CC3)CC2)cc1OC,> 100 µM,3.11 µM
